Where two headings read alike, the source gives them in different places.
Assays:
[1] = molecular target: NR2D (Homo sapiens, UniProt O15399); assay: Potentiation of [3H]MK-801 binding, wild-type NMDAR2D; design: species or system rat; details: for NMDAR2D BINDING PROFILE % 1 mM Glycine: relative to 1 mM glycine
Method: (§1) Assays were conducted as described by Moskal et al., “GLYX-13: a monoclonal antibody-derived peptide that acts as an N-methyl-D-aspartate receptor modulator,” Neuropharmacology, 49, 1077-87, 2005. The potentiation of [^3H]MK-801 binding (5 nM; 22.5 Ci/mmol) to well washed rat cortical membranes (200 μg) was measured under non-equilibrium conditions (15 min @ 25° C.) in the presence of increasing concentrations of Compound AA or Compound BB.
(§2) FIG. 2A depicts the potentiation of [^3H]MK-801 binding for wild-type NMDAR2 subtypes in the presence of Compound AA. FIG. 2B depicts the potentiation of [^3H]MK-801 binding for wild-type NMDAR2 subtypes in the presence of Compound BB. The following table depicts the results (P means potency and A means activity): […]

[2] = Plasma protein binding assay, rat; assay type: in vitro ADME; details: read-out: Plasma Protein binding (% Bound) Plasma rat (converted)
Method: Bound drug concentration in the brain was also investigated, and plasma protein binding assays were conducted. The following table (% bound) indicates results for Compound AA and Compound BB.

[3] = Plasma stability, human; assay type: in vitro ADME
Method: (§3) Plasma stability for Compound AA and Compound BB was investigated. The following table indicates the percent of Compound AA and Compound BB remaining after 60 minutes.

[4] = molecular target: NR2A (Homo sapiens, UniProt Q12879); assay: Potentiation of [3H]MK-801 binding, wild-type NMDAR2A; design: species or system rat; details: for NMDAR2A BINDING PROFILE % 1 mM Glycine: relative to 1 mM glycine
[5] = Plasma stability, rat; assay type: in vitro ADME
Method: as §3

[6] = Microsomal stability, rat; assay type: in vitro ADME; details: rat microsomes
Method: (§4) Microsomal stability for Compound AA and Compound BB was investigated. The following table indicates the percent of Compound AA and Compound BB remaining after 60 minutes.

[7] = tested on: Sprague Dawley rats; assay: Porsolt forced swim test; assay type: in vivo, rat; details: 1 mg/kg PO
Method: A non-clinical in vivo pharmacology study (Porsolt assay) was performed to measure antidepressant-like effects. A negative control (0.5% sodium carboxymethyl cellulose in 0.9% sterile saline vehicle) and a positive control (Compound C) were used to compare against Compound BB. The study allowed for the construction of a dose-response curve of the effects of each compound on the Porsolt forced swim test as assessed by the rats' response (reduced floating time) during a 5-minute swimming test.
Male 2-3 month old Sprague Dawley rats were used (Harlan, Indianapolis, Ind.). Rats were housed in Lucite cages with aspen wood chip bedding, maintained on a 12:12 light:dark cycle (lights on at 5 AM), and given ad libitum access to Purina lab chow (USA) and tap water throughout the study.
The Porsolt forced swim test adapted for use in rats was performed as described by Burgdorf et al., (The long-lasting antidepressant effects of rapastinel (GLYX-13) are associated with a metaplasticity process in the medial prefrontal cortex and hippocampus. Neuroscience 308:202-211, 2015). Animals were placed in a 46 cm tall×20 cm in diameter clear glass tube filled to 30 cm with tap water (23±1° C.) for 15 min on the first day (habituation) and 5 min on the subsequent test day. Animals were tested 1 h post-dosing with the compound BB, positive control (Compound C, 10 μg/kg), or vehicle (0.5% sodium carboxymethyl cellulose (Na-CMC) in 0.9% sterile saline). Water was changed after every other animal. Animals were videotaped, and floating time as defined as the minimal amount of effort required to keep the animals head above water was scored offline by a blinded experimenter with high inter-rater reliability (Pearson's r >0.9).
The maximally efficacious dose was defined as the lowest dose that was statistically different from vehicle but statistically equivalent (per Fisher's PLSD) to the higher doses. […]
Compound AA was assessed in a second set of animals at a single dose at 1 h post-administration and in a third set of animals at 24 h post-administration (FIG. 9B). […]

[8] = molecular target: NR2B (Homo sapiens, UniProt Q13224); assay: Potentiation of [3H]MK-801 binding, wild-type NMDAR2B; design: species or system rat; details: for NMDAR2B BINDING PROFILE % 1 mM Glycine: relative to 1 mM glycine; for NMDAR2B BINDING PROFILE Conclusion / EC50: wild-type NMDAR2B; for EC50: 0 = no activity, read-out: NMDAR2B BINDING PROFILE −logEC50 (converted)
Method: as §1, §2

[9] = molecular target: NR2C (Homo sapiens, UniProt Q14957); assay: Potentiation of [3H]MK-801 binding, wild-type NMDAR2C; design: species or system rat; details: for NMDAR2C BINDING PROFILE % 1 mM Glycine: relative to 1 mM glycine
Method: as §1, §2

[10] = Bioavailability and CSF/brain/plasma exposure after PO administration; assay type: in vivo, Sprague Dawley rats; details: rat, plasma; PO administration (10 mg/kg PO, 2 mg/kg IV), male Sprague Dawley rats; read-out: Bioavailablity (% F)
Method: The bioavailablity of Compound BB was investigated following PO administration. CSF, brain and plasma samples were analyzed following dosing with compound BB (10 mg/kg). The following table indicates the bioavailablity and CSF/plasma and brain/plasma ratios.
Sprague Dawley rats were dosed intravenously with 2 mg/kg of Compound AA. A second group of Sprague Dawley rats was dosed per os with 10 mg/kg of compound AA. Plasma samples were drawn over a 24 h period and analyzed for Compound AA. FIG. 3A presents the mean plasma concentration-time profile of Compound AA following the single intraveneous (2 mg/kg) and oral (10 mg/kg) dose administration in male Sprague Dawley rats over the 24 hour period.
In another experiment. Sprague Dawley rats were dosed intravenously with 2 mg/kg of Compound BB. A second group of Sprague Dawley rats was dosed per os with 10 mg/kg of compound BB. Plasma samples were drawn over a 24 h period and analyzed for Compound BB. FIG. 3B presents the mean plasma concentration-time profile of Compound BB following the single intraveneous (2 mg/kg) and oral (10 mg/kg) dose administration in male Sprague Dawley rats over the 24 hour period.
In another experiment, Sprague Dawley rats were dosed per os with 10 mg/kg of Compound BB. Plasma, brain, and CSF samples were analyzed at various time points over a 24 hour period.

[11] = Microsomal stability, human; assay type: in vitro ADME; details: human microsomes
Method: as §4

[12] = potentiation of [3H]MK-801 binding
[13] = wild-type NMDAR2D, read-out: NMDAR2D BINDING PROFILE −logEC50 (converted)
[14] = wild-type NMDAR2A, 0 = no activity, read-out: NMDAR2A BINDING PROFILE −logEC50 (converted)
[15] = wild-type NMDAR2C, 0 = no activity, read-out: NMDAR2C BINDING PROFILE −logEC50 (converted)

Sequence of NR2C (Q14957 20-1233, species assumed, other chains not shown): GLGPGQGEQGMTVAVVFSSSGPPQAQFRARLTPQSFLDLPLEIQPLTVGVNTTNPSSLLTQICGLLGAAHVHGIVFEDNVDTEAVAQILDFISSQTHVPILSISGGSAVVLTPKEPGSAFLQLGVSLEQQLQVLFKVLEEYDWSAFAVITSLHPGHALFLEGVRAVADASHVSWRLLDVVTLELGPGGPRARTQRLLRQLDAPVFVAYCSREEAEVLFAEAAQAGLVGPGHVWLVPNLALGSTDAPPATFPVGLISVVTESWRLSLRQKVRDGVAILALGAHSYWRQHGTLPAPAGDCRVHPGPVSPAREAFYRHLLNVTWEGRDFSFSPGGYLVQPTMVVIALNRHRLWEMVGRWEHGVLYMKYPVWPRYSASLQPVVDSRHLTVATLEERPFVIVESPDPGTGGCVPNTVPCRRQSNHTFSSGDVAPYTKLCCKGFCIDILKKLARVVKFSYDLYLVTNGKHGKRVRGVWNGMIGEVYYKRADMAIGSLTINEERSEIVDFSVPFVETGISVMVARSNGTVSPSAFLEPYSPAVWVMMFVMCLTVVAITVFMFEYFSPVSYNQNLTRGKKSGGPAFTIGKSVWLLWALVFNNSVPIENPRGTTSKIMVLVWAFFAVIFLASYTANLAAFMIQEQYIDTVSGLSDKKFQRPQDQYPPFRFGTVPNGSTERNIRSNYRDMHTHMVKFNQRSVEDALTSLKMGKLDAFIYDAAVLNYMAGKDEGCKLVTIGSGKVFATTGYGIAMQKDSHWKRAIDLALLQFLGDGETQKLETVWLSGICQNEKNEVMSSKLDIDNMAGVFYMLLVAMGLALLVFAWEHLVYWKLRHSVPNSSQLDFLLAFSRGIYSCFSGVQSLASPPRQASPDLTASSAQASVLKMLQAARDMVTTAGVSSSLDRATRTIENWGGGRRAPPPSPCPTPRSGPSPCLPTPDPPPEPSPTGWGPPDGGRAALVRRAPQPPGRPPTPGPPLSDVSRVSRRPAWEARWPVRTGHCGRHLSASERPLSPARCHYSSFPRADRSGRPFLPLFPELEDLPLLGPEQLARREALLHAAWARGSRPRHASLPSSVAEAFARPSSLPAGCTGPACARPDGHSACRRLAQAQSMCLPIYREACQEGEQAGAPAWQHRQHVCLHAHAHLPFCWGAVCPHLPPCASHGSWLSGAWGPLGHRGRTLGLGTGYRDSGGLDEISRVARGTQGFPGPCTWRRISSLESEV
Sequence of NR2A (Q12879 23-1464, species assumed, other chains not shown): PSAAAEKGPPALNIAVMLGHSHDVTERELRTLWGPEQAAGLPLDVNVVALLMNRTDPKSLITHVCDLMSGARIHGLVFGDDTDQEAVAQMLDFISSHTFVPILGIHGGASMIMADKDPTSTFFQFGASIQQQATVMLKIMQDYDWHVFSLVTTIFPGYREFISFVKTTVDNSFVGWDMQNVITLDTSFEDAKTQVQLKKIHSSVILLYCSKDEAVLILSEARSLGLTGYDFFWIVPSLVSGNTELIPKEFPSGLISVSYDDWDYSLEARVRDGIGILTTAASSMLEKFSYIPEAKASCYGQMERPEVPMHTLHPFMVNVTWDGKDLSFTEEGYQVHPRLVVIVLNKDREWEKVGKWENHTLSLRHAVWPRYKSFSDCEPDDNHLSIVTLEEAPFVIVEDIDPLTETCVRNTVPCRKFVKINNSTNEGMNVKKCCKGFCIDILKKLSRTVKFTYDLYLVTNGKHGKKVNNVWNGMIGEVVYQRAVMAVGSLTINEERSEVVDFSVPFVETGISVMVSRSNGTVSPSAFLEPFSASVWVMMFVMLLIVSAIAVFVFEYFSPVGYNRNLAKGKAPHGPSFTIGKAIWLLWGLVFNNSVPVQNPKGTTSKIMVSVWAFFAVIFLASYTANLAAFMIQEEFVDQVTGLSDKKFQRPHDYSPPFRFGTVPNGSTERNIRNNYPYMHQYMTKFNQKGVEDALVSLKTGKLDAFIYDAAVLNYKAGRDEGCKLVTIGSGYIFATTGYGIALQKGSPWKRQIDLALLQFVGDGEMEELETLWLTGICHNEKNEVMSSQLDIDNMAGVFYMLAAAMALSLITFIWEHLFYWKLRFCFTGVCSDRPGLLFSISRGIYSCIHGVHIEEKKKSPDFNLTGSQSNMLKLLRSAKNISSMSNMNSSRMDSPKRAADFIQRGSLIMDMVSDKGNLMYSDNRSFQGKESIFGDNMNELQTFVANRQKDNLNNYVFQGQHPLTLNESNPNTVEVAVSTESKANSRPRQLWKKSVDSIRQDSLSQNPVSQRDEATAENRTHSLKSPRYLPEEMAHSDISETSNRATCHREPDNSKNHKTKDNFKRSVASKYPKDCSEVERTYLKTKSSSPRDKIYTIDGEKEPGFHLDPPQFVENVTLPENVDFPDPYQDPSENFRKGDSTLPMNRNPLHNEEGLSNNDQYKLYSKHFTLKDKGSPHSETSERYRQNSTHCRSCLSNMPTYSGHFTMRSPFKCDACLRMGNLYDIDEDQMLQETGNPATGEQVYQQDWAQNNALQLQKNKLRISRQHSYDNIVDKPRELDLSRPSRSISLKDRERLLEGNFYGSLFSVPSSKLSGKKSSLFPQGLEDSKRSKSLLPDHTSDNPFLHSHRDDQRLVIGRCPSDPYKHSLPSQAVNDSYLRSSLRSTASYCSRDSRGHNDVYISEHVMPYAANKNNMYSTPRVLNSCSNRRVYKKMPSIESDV
Sequence of NR2B (Q13224 27-1484, species assumed, other chains not shown): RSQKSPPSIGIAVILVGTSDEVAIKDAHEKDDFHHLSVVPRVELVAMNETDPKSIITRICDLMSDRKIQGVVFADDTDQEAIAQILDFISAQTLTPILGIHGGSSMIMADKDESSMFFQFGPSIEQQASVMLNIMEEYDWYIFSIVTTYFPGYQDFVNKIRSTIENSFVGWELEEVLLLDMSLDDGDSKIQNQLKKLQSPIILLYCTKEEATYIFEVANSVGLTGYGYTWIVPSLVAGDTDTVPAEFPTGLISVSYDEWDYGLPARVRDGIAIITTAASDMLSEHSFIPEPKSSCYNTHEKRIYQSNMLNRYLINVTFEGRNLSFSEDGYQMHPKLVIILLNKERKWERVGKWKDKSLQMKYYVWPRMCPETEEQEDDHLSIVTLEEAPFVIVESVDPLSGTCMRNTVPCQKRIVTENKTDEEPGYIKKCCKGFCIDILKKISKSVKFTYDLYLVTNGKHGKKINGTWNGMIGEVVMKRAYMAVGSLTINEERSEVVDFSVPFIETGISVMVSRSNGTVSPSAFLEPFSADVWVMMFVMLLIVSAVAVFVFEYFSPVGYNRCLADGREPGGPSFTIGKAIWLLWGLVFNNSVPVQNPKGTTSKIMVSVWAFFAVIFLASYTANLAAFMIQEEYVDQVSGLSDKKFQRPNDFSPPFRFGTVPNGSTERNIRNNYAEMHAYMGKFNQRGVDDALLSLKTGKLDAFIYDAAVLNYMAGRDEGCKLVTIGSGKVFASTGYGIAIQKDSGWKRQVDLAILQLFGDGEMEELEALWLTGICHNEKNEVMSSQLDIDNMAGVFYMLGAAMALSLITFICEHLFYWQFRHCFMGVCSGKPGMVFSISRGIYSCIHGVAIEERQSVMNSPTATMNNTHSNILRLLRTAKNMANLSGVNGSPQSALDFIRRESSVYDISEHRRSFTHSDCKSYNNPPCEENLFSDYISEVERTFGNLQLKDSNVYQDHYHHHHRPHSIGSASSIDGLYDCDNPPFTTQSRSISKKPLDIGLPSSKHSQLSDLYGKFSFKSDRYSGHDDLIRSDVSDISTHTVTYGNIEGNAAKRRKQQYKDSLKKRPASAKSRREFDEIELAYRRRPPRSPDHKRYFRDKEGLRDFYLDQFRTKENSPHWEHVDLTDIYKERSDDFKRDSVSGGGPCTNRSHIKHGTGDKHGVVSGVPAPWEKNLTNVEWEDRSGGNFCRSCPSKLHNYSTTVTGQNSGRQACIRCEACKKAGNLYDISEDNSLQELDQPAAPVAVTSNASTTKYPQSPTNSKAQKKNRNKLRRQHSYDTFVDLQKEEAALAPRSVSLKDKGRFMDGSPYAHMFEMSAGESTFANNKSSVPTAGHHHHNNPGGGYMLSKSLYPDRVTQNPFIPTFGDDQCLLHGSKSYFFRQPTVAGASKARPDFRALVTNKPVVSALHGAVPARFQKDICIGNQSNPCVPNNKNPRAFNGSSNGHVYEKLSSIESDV

SMILES | NMDAR2D BINDING PROFILE % 1 mM Glycine [1] [%] | NMDAR2D BINDING PROFILE Conclusion ([1]; wild-type NMDAR2D) | EC50 [1, 13] [M] | NMDAR2A BINDING PROFILE % 1 mM Glycine [4] [%] | NMDAR2A BINDING PROFILE Conclusion ([4]; wild-type NMDAR2A) | NMDAR2B BINDING PROFILE % 1 mM Glycine [8] [%] | NMDAR2B BINDING PROFILE Conclusion [8] | NMDAR2C BINDING PROFILE % 1 mM Glycine [9] [%] | NMDAR2C BINDING PROFILE Conclusion ([9]; wild-type NMDAR2C) | EC50 [4, 14] [M] | EC50 [8] [nM] | EC50 [9, 15] [M] | also measured
C[C@@H](O)[C@@H](C(N)=O)N1C[C@]2(CCCN2S(C)(=O)=O)C1=O [Compound AA, (2S,3R)-3-hydroxy-2-((R)-5-(methylsulfonyl)-1-oxo-2,5-diazaspiro[3,4]octan-2-yl)butanamide] | 52 | WT2D agonist | 1.58e-11 | 38.8 | WT2A agonist | 0 | WT2B no | 67 | WT2C agonist |  |  |  | NR2D A (%) (activity) [1, 12]: 58.7%; EC50 ([1]; potentiation of [3H]MK-801 binding, 0 = no activity, read-out: NR2D P (M) (potency) (converted)): 2e-11 M; fraction unbound [2]: 0.82; Plasma Stability (% remaining at 60 min) Human [3]: 91%; NR2A A (%) (activity) [4, 12]: 38.8%; EC50 ([4]; potentiation of [3H]MK-801 binding, 0 = no activity, read-out: NR2A P (M) (potency)): 1e-10 M; NMDAR2A BINDING PROFILE −logEC50 ([4]; wild-type NMDAR2A, 0 = no activity): 10; Plasma Stability (% remaining at 60 min) Rat [5]: 59%; Microsomal Stability (% remaining at 60 min) Rat [6]: 100%; floating time in the Porsolt test ([7]; 1 h post-dosing): significant (p<0.05) antidepressant-like effect; floating time in the Porsolt test ([7]; 24 h post-dosing): significant (p<0.05) antidepressant-like effect; NR2B A (%) (activity) [8, 12]: 0%; NR2C A (%) (activity) [9, 12]: 67.0%; EC50 ([9]; potentiation of [3H]MK-801 binding, 0 = no activity, read-out: NR2C P (M) (potency)): 1e-10 M; NMDAR2C BINDING PROFILE −logEC50 ([9]; wild-type NMDAR2C, 0 = no activity): 10; bioavailability [10]: 29%; Microsomal Stability (% remaining at 60 min) Human [11]: 100%
C[C@@H](O)[C@@H](C(N)=O)N1C[C@]2(CCCN2C(=O)OC(C)(C)C)C1=O [Compound W, tert-butyl (R)-2-((2S,3R)-1-amino-3-hydroxy-1-oxobutan-2-yl)-1-oxo-2,5-diazaspiro[3,4]octane-5-carboxylate] | 66.72 | WT2D agonist | 7.08e-12 | 18.33 | WT2A agonist | 53.09 | WT2B agonist | 67.5 | WT2C agonist | 4.47e-12 | 1.06 | 1.45e-10 | 
C[C@@H](O)[C@@H](C(N)=O)N1C[C@@]2(CCCN2C(=O)OC(C)(C)C)C1=O [Compound X, tert-butyl (S)-2-((2S,3R)-1-amino-3-hydroxy-1-oxobutan-2-yl)-1-oxo-2,5-diazaspiro[3,4]octane-5-carboxylate] | 93.58 | WT2D agonist | 1.32e-12 | 41.04 | WT2A agonist | 59.55 | WT2B agonist | 59.73 | WT2C agonist |  | 0.147 |  | 
CC(C)C(=O)N1CCC[C@]12CN([C@H](C(N)=O)[C@@H](C)O)C2=O [Compound Y, (2S,3R)-3-hydroxy-2-((R)-5-isobutyryl-1-oxo-2,5-diazaspiro[3,4]octan-2-yl)butanamide] | 54.85 | WT2D agonist | 1e-10 | 61.76 | WT2A agonist | 70.74 | WT2B agonist | 64.24 | WT2C agonist | 8.91e-12 |  | 3.63e-12 | 
CC(C)C(=O)N1CCC[C@@]12CN([C@H](C(N)=O)[C@@H](C)O)C2=O [Compound Z, (2S,3R)-3-hydroxy-2-((S)-5-isobutyryl-1-oxo-2,5-diazaspiro[3,4]octan-2-yl)butanamide] | 65.32 | WT2D agonist | 6.03e-12 | 42.5 | WT2A agonist | 70.49 | WT2B agonist | 47.76 | WT2C agonist | 8.71e-11 |  | 3.16e-12 | 
